According to patent publication US7179804B2, “Tachykinin receptor antagonists” (Eli Lilly and Company, priority 2002, dated 2007):

| melting point [°C] | Structure (SMILES) |
| --- | --- |
| 145 to 146 | CC(O)c1onc(-c2ccccc2Cl)c1C(=O)c1nnn(Cc2cc(C(F)(F)F)cc(C(F)(F)F)c2)c1N1CCOCC1 (centres unmarked) [Example 81, [1-(3,5-bis-trifluoromethyl-benzyl)-5-morpholin-4-yl-1H-[1,2,3]triazol-4-yl]-[3-(2-chloro-phenyl)-5-(1-hydroxy-ethyl)-isoxazol-4-yl]-methanone] |
| 148.8 | O=C(c1nnn(Cc2cc(C(F)(F)F)cc(C(F)(F)F)c2)c1-n1ccnc1)c1c(CO)noc1-c1ccccc1Cl [Example 269, [1-(3,5-bistrifluoromethylbenzyl)-5-imidazol-1-yl-1H-[1,2,3]triazol-4-yl]-[5-(2-chlorophenyl)-3-hydroxymethyl-isoxazol-4-yl]-methanone] |
| 188 | CC(C)(O)c1onc(-c2ccccc2Cl)c1C(=O)c1nnn(Cc2cc(C(F)(F)F)cc(C(F)(F)F)c2)c1N1CCOCC1 [Example 73] |
| 105 | CC(C)(O)c1onc(-c2ccccc2Cl)c1C(=O)c1nnn(Cc2cc(C(F)(F)F)cc(C(F)(F)F)c2)c1-c1cccnc1 [Example 79, [1-(3,5-bis-trifluoromethyl-benzyl)-5-pyridin-3-yl-1H-[1,2,3]triazol-4-yl]-[3-(2-chloro-phenyl)-5-(1-hydroxy-1-methyl-ethyl)-isoxazol-4-yl]-methanone] |
| 180 | CC(C)(O)c1onc(-c2ccccc2Cl)c1C(=O)c1nnn(Cc2cc(F)cc(C(F)(F)F)c2)c1-c1cccnc1 [Example 211, [3-(2-chloro-phenyl)-5-(1-hydroxy-1-methyl-ethyl)-isoxazol-4-yl]-[1-(3-fluoro-5-trifluoromethyl-benzyl)-5-pyridin-3-yl-1H-[1,2,3]triazol-4-yl]-methanone] |
